# Data as given in US20250230171A1 (MOMA Therapeutics, Inc., priority 2023, published 2025).
# Tests used:
# [1] = tested on: DLD1 BRCA2 (−/−) cells; assay: 7-day cell viability assay (CellTiter-Glo), DLD1 BRCA2 (−/−); type: cell-based, human; details: Homo sapiens, DLD-1, 168 h, 7-day CellTiter-Glo, n=2, read-out: Viability IC50 (uM) DLD1 BRCA2 null
# Procedure, shortened: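 7-day growth assay in DLD1 cells with or without BRCA2; seeding densities chosen to keep log-linear growth. Compound: 10 uM top, 3-fold, 9 points. Endpoint: CTG ATP luminescence at RT.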
# [2] = tested on: DLD1 WT cells; assay: 7-day cell viability assay (CellTiter-Glo), DLD1 parental (WT); type: cell-based, human; details: Homo sapiens, DLD-1, 168 h, 7-day CellTiter-Glo, n=2
SMILES,IC50 [1],IC50 [2]
"COc1cnc(Cl)cc1-c1cc(C)ncc1C(=O)Nc1nc2c(s1)CN(C(=O)c1nc(C(F)(F)F)ccc1F)C2 [Example 936, 2′-chloro-N-(5-(3-fluoro-6-(trifluoromethyl)picolinoyl)-5,6-dihydro-4H-pyrrolo[3,4-d]thiazol-2-yl)-5′-methoxy-6-methyl-[4,4′-bipyridine]-3-carboxamide]",0.001 to 0.1 µM,≥ 10 µM
"COc1cnc(Cl)cc1-c1cc(C)ncc1C(=O)Nc1nc2c(s1)CN(C(=O)c1nccc(C(F)F)c1C)C2 [Example 976, 2′-chloro-N-(5-(4-(difluoromethyl)-3-methylpicolinoyl)-5,6-dihydro-4H-pyrrolo[3,4-d]thiazol-2-yl)-5′-methoxy-6-methyl-[4,4′-bipyridine]-3-carboxamide]",0.001 to 0.1 µM,≥ 10 µM
"COc1cnc(Cl)cc1-c1cc(C)ncc1C(=O)Nc1nc2c(s1)CN(C(=O)c1nc(C)c(C(F)F)c(C)c1Cl)C2 [Example 1020, 2′-chloro-N-(5-(3-chloro-5-(difluoromethyl)-4,6-dimethylpicolinoyl)-5,6-dihydro-4H-pyrrolo[3,4-d]thiazol-2-yl)-5′-methoxy-6-methyl-[4,4′-bipyridine]-3-carboxamide]",0.001 to 0.1 µM,≥ 10 µM
"COc1cnc(Cl)cc1-c1cc(C)ncc1C(=O)Nc1nc2c(s1)CN(C(=O)c1nccc(C(F)(F)F)c1OC)C2 [Example 968, 2′-chloro-5′-methoxy-N-(5-(3-methoxy-4-(trifluoromethyl)picolinoyl)-5,6-dihydro-4H-pyrrolo[3,4-d]thiazol-2-yl)-6-methyl-[4,4′-bipyridine]-3-carboxamide]",0.001 to 0.1 µM,≥ 10 µM
"COc1cnc(Cl)cc1-c1cc(C)ncc1C(=O)Nc1nc2c(s1)CN(C(=O)c1cccc(OC)c1Cl)C2 [Example 396, 2′-chloro-N-(5-(2-chloro-3-methoxybenzoyl)-5,6-dihydro-4H-pyrrolo[3,4-d]thiazol-2-yl)-5′-methoxy-6-methyl-[4,4′-bipyridine]-3-carboxamide]",0.001 to 0.1 µM,≥ 10 µM
COc1cnc(Cl)cc1-c1cc(C)ncc1C(=O)Nc1nc2c(s1)CN(C(=O)c1c(C)cc(C(F)(F)F)nc1C)C2 [Example 649],0.001 to 0.1 µM,≥ 10 µM
"COc1cnc(Cl)cc1-c1cc(C)ncc1C(=O)Nc1nc2c(s1)CN(C(=O)c1ncc(C(F)F)nc1OC)C2 [Example 972, 2′-chloro-N-(5-(5-(difluoromethyl)-3-methoxypyrazine-2-carbonyl)-5,6-dihydro-4H-pyrrolo[3,4-d]thiazol-2-yl)-5′-methoxy-6-methyl-[4,4′-bipyridine]-3-carboxamide]",0.001 to 0.1 µM,≥ 10 µM
"COc1cnc(Cl)cc1-c1cc(C)ncc1C(=O)Nc1nc2c(s1)CN(C(=O)c1ccc(C(F)F)nc1C)C2 [Example 947, 2′-chloro-N-(5-(6-(difluoromethyl)-2-methylnicotinoyl)-5,6-dihydro-4H-pyrrolo[3,4-d]thiazol-2-yl)-5′-methoxy-6-methyl-[4,4′-bipyridine]-3-carboxamide]",0.001 to 0.1 µM,≥ 10 µM
"COc1cc2c(cnn2C)cc1-c1cc(C)ncc1C(=O)Nc1nc2c(s1)CN(C(=O)c1ccc(C(F)(F)F)nc1OC)C2 [Example 1010, 4-(6-methoxy-1-methyl-1H-indazol-S-yl)-N-(5-(2-methoxy-6-(trifluoromethyl)nicotinoyl)-5,6-dihydro-4H-pyrrolo[3,4-d]thiazol-2-yl)-6-methylnicotinamide]",0.001 to 0.1 µM,≥ 10 µM
COc1cnc(Cl)cc1-c1cc(C)ncc1C(=O)Nc1nc2c(s1)CN(C(=O)c1ccc(OC(F)(F)F)c(Cl)n1)C2 [Example 997],0.001 to 0.1 µM,≥ 10 µM
"COc1nc(C(F)(F)F)ccc1C(=O)N1Cc2nc(NC(=O)c3cnc(C)cc3-c3cc(Cl)nnc3OC)sc2C1 [Example 996, 4-(6-chloro-3-methoxypyridazin-4-yl)-N-(5-(2-methoxy-6-(trifluoromethyl)nicotinoyl)-5,6-dihydro-4H-pyrrolo[3,4-d]thiazol-2-yl)-6-methylnicotinamide]",0.001 to 0.1 µM,≥ 10 µM
"COc1cnc(Cl)cc1-c1cc(C)ncc1C(=O)Nc1nc2c(s1)CN(C(=O)c1nc(Cl)c(C(F)F)cc1F)C2 [Example 927, 2′-chloro-N-(5-(6-chloro-5-(difluoromethyl)-3-fluoropicolinoyl)-5,6-dihydro-4H-pyrrolo[3,4-d]thiazol-2-yl)-5′-methoxy-6-methyl-[4,4′-bipyridine]-3-carboxamide]",0.001 to 0.1 µM,≥ 10 µM
"COc1cnc(Cl)cc1-c1cc(C)ncc1C(=O)Nc1nc2c(s1)CN(C(=O)c1cc(C)c(C(F)(F)F)nc1OC)C2 [Example 989, 2′-chloro-5′-methoxy-N-(5-(2-methoxy-5-methyl-6-(trifluoromethyl)nicotinoyl)-5,6-dihydro-4H-pyrrolo[3,4-d]thiazol-2-yl)-6-methyl-[4,4′-bipyridine]-3-carboxamide]",0.001 to 0.1 µM,≥ 10 µM
"COc1nnc(C(F)F)cc1-c1cc(C)ncc1C(=O)Nc1nc2c(s1)CN(C(=O)c1nccc(C(F)(F)F)c1C)C2 [Example 1024, 4-(6-(difluoromethyl)-3-methoxypyridazin-4-yl)-6-methyl-N-(5-(3-methyl-4-(trifluoromethyl)picolinoyl)-5,6-dihydro-4H-pyrrolo[3,4-d]thiazol-2-yl)nicotinamide]",0.001 to 0.1 µM,≥ 10 µM
COc1cn2cncc2cc1-c1cc(C)ncc1C(=O)Nc1nc2c(s1)CN(C(=O)c1ccc(C(F)(F)F)nc1OC)C2 [Example 1004],0.001 to 0.1 µM,≥ 10 µM
COc1cnc(Cl)cc1-c1cc(C)ncc1C(=O)Nc1nc2c(s1)CN(C(=O)c1ncc(Cl)c(C(F)F)n1)C2 (racemic),0.25 to 0.5 µM,≥ 10 µM

# Now from value to compound, other results behind:
IC50 [1],SMILES,IC50 [2]
0.001 to 0.1 µM,COc1cnc(Cl)cc1-c1cc(C)ncc1C(=O)Nc1nc2c(s1)CN(C(=O)c1cc(C)nc3ccnn13)C2,≥ 10 µM
0.001 to 0.1 µM,"COc1cnc(Cl)cc1-c1cc(C)ncc1C(=O)Nc1nc2c(s1)CN(C(=O)c1nc(C(F)(F)F)c(C#N)cc1C)C2 [Example 1022, 2′-chloro-N-(5-(5-cyano-3-methyl-6-(trifluoromethyl)picolinoyl)-5,6-dihydro-4H-pyrrolo[3,4-d]thiazol-2-yl)-5′-methoxy-6-methyl-[4,4′-bipyridine]-3-carboxamide]",≥ 10 µM
0.001 to 0.1 µM,"COc1cnc(Cl)cc1-c1cc(C)ncc1C(=O)Nc1nc2c(s1)CN(C(=O)c1nc(C(F)(F)F)ccc1Cl)C2 [Example 952, 2′-chloro-N-(5-(3-chloro-6-(trifluoromethyl)picolinoyl)-5,6-dihydro-4H-pyrrolo[3,4-d]thiazol-2-yl)-5′-methoxy-6-methyl-[4,4′-bipyridine]-3-carboxamide]",≥ 10 µM
0.001 to 0.1 µM,COc1cnc(Cl)cc1-c1cc(C)ncc1C(=O)Nc1nc2c(s1)CN(C(=O)c1cc(C)c(C(F)(F)F)nc1C)C2,≥ 10 µM
0.001 to 0.1 µM,"COc1cnc(Cl)cc1-c1cc(C)ncc1C(=O)Nc1nc2c(s1)CN(C(=O)c1ncc(OC(F)(F)F)cc1C)C2 [Example 1007, 2′-chloro-5′-methoxy-6-methyl-N-(5-(3-methyl-5-(trifluoromethoxy)picolinoyl)-5,6-dihydro-4H-pyrrolo[3,4-d]thiazol-2-yl)-[4,4′-bipyridine]-3-carboxamide]",≥ 10 µM
0.001 to 0.1 µM,"COc1cnc(Cl)cc1-c1cc(C)ncc1C(=O)Nc1nc2c(s1)CN(C(=O)c1ccc(OC(F)F)c(C)n1)C2 [Example 1008, 2′-chloro-N-(5-(5-(difluoromethoxy)-6-methylpicolinoyl)-5,6-dihydro-4H-pyrrolo[3,4-d]thiazol-2-yl)-5′-methoxy-6-methyl-[4,4′-bipyridine]-3-carboxamide]",≥ 10 µM
0.001 to 0.1 µM,COc1cnc(Cl)cc1-c1cc(C)ncc1C(=O)Nc1nc2c(s1)CN(C(=O)c1cnc(OC(F)F)cc1C)C2,≥ 10 µM
0.001 to 0.1 µM,"COc1cccc(F)c1-c1cc(C)ncc1C(=O)Nc1nc2c(s1)CN(C(=O)c1ccc(C(F)(F)F)nc1OC)C2 [Example 1013, 4-(2-fluoro-6-methoxyphenyl)-N-(5-(2-methoxy-6-(trifluoromethyl)nicotinoyl)-5,6-dihydro-4H-pyrrolo[3,4-d]thiazol-2-yl)-6-methylnicotinamide]",≥ 10 µM
0.001 to 0.1 µM,COc1cnc(Cl)cc1-c1cc(C)ncc1C(=O)Nc1nc2c(s1)CN(C(=O)c1ccc(OC(F)F)cc1)C2,≥ 10 µM
0.1 to 0.25 µM,COc1cnc(Cl)cc1-c1cc(C)ncc1C(=O)Nc1nc2c(s1)CN(C(=O)c1nc(C)cnc1C)C2,≥ 10 µM
0.001 to 0.1 µM,"COc1cnc(Cl)cc1-c1cc(C)ncc1C(=O)Nc1nc2c(s1)CN(C(C)c1ccc(C(F)F)cc1F)C2 (stereo not drawn) [Example 975, 2′-chloro-N-(5-(1-(4-(difluoromethyl)-2-fluorophenyl)ethyl)-5,6-dihydro-4H-pyrrolo[3,4-d]thiazol-2-yl)-5′-methoxy-6-methyl-[4,4′-bipyridine]-3-carboxamide]",≥ 10 µM
0.001 to 0.1 µM,"COc1cnc(Cl)cc1-c1cc(C)ncc1C(=O)Nc1nc2c(s1)CN(C(=O)c1nc(C(F)(F)F)ccc1C)C2 [Example 965, 2′-chloro-5′-methoxy-6-methyl-N-(5-(3-methyl-6-(trifluoromethyl)picolinoyl)-5,6-dihydro-4H-pyrrolo[3,4-d]thiazol-2-yl)-[4,4′-bipyridine]-3-carboxamide]",≥ 10 µM
0.001 to 0.1 µM,COc1cnc(C(F)F)cc1-c1cc(C)ncc1C(=O)Nc1nc2c(s1)CN(C(=O)c1cccc(C(F)F)n1)C2,≥ 10 µM
0.001 to 0.1 µM,"COc1nnc(Cl)cc1-c1cc(C)ncc1C(=O)Nc1nc2c(s1)CN(C(=O)c1ccc(C#N)c(C)n1)C2 [Example 981, 4-(6-chloro-3-methoxypyridazin-4-yl)-N-(5-(5-cyano-6-methylpicolinoyl)-5,6-dihydro-4H-pyrrolo[3,4-d]thiazol-2-yl)-6-methylnicotinamide]",≥ 10 µM
